{"source": "patent US6992169B2", "about": "“Carrier based drug delivery system” (Cyclacel Limited, priority 1998, dated 2006)", "test": "Carcinoma cell line panel, SRB-assay", "description": "After incubation for 96 h, cytotoxicity was assessed using a standard SRB-assay."}
{"smiles": "CC[C@H](C)[C@H](NC(=O)[C@H](CCCCN)NC(=O)[C@@H](NC(=O)[C@H](CCC(N)=O)NC(=O)[C@H](CCCNC(=N)N)NC(=O)[C@@H](N)CSC1CC(=O)N(CCC(=O)O[C@H]2C[C@H]3OC[C@@]3(OC(C)=O)[C@H]3[C@H](OC(=O)c4ccccc4)[C@]4(O)C[C@H](OC(=O)[C@H](O)[C@@H](NC(=O)c5ccccc5)c5ccccc5)C(C)=C([C@@H](OC(C)=O)C(=O)[C@]23C)C4(C)C)C1=O)[C@@H](C)CC)C(=O)N[C@@H](Cc1c[nH]c2ccccc12)C(=O)N[C@@H](Cc1ccccc1)C(=O)N[C@@H](CCC(N)=O)C(=O)N[C@@H](CC(N)=O)C(=O)N[C@@H](CCCNC(=N)N)C(=O)N[C@@H](CCCNC(=N)N)C(=O)N[C@@H](CCSC)C(=O)N[C@@H](CCCCN)C(=O)N[C@@H](Cc1c[nH]c2ccccc12)C(=O)N[C@@H](CCCCN)C(=O)N[C@@H](CCCCN)C(=O)O", "note": "(stereo partly shown) [7-Paclitaxel Vector Conjugate]", "values": [{"measurement": "IC50 at 96 h", "value": "> 25", "unit": "µM"}]}
